According to patent US20080139623A1, “Amorphous and crystalline forms of pantoprazole magnesium salt” (priority 2006, published 2008):

Legend:
Type in all cases: physicochemical
[1] = Solubility in water at 25° C. (saturated solution, HPLC assay); conditions: for solubility: in water at 25° C.
Description: The solubilities of amorphous pantoprazole magnesium and pantoprazole magnesium Form A were each measured in water at 25° C. The certain amount of amorphous sample and form A sample were added each to 50 ml of distillated water. The solutions were kept saturated during the experiment. The aliquots were taken, filtered and injected into HPLC by the method of assay determination for PNT-Mg and the concentrations were calculated by comparison of absorptions at certain wavelength against the known concentration of PNT-Mg standard.

[2] = Analysis of particle size by light microscope in light oil
From the text: Samples of crystalline pantoprazole magnesium Forms A (prepared according to example 15), E, F, G, and H were each analyzed by light microscope in light oil. The results are depicted in FIGS. 29-33, respectively.

[3] = Stability of crystalline form under heating (100° C., two weeks, PXRD); conditions: heated at 100° C. for two weeks, analyzed by PXRD
Description: The powder X-ray diffraction was performed on Scintag X-ray powder diffractometer model X'TRA with a solid state detector. Copper radiation of 1.5418 Å was used. The sample holder was a round standard aluminum sample holder with rough zero background. The scanning parameters were range: 2-40 degrees two-theta; scan mode: continuous scan; step size: 0.05 deg.; and at a rate of 5 deg/min.
Samples of crystalline pantoprazole magnesium Form C and Form A (prepared according to example 15) were each heated at 100° C. for two weeks. The samples were then analyzed by PXRD.

| Substance | particle shape / description [2] | particle size [2] | other results |
| --- | --- | --- | --- |
| 5-difluoromethoxy-2-[[3,4-dimethoxy-2-pyridinyl)methyl]sulfinyl]-1H-benzimidazole magnesium salt [amorphous pantoprazole magnesium] | – | – | solubility [1]: about 1.3 mg/ml; solubility in water relative to crystalline Form A ([1]; in water, amorphous form versus Form A prepared according to the '464 patent): approximately 6.5 times |
| 5-difluoromethoxy-2-[[3,4-dimethoxy-2-pyridinyl)methyl]sulfinyl]-1H-benzimidazole magnesium salt [Form A, reference compound] | plate-shaped particles | less than 50 microns | solubility [1]: about 0.2 mg/ml; crystalline form after heating (polymorphic stability) [3]: transformed to amorphous form |
| 5-difluoromethoxy-2-[[3,4-dimethoxy-2-pyridinyl)methyl]sulfinyl]-1H-benzimidazole magnesium salt [Form G] | – | less than 10 microns | – |
| 5-difluoromethoxy-2-[[3,4-dimethoxy-2-pyridinyl)methyl]sulfinyl]-1H-benzimidazole magnesium salt [Form F] | spherical particles | – | – |
| 5-difluoromethoxy-2-[[3,4-dimethoxy-2-pyridinyl)methyl]sulfinyl]-1H-benzimidazole magnesium salt [Form E] | plate-shaped particles | less than 20 microns | – |
| 5-difluoromethoxy-2-[[3,4-dimethoxy-2-pyridinyl)methyl]sulfinyl]-1H-benzimidazole magnesium salt [Form H] | very small particles | – | – |
| 5-difluoromethoxy-2-[[3,4-dimethoxy-2-pyridinyl)methyl]sulfinyl]-1H-benzimidazole magnesium salt [Form C] | – | – | crystalline form after heating (polymorphic stability) [3]: maintained its crystalline form |
